From patent US10167293B2, “[8-(phenylsulfonyl)-3,8-diazabicyclo[3.2.1]oct-3-yl](1H-1,2,3-triazol-4-yl)methanones” (BAYER PHARMA AKTIENGESELLSCHAFT, priority 2016, dated 2019)

These compounds were tested against recombinant human AKR1C3 (Homo sapiens (Human), UniProt P42330) (assay: AKR1C3-inhibitory activity assay (Coumberone to Coumberol fluorescence)). Conditions: recombinant human AKR1C3, 15 min pre-incubation, 10 μM NADPH, 0.3 μM Coumberone.
Chain of recombinant human AKR1C3 (P42330 whole entry): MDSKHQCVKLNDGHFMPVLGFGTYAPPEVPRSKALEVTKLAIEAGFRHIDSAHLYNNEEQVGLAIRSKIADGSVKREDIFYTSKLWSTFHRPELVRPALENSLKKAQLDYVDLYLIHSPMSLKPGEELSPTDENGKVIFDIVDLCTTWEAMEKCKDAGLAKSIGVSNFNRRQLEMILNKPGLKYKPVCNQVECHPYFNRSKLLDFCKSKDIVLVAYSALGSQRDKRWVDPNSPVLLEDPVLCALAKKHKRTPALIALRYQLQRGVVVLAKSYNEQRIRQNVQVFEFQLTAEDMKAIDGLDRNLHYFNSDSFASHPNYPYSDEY
Assay type: biochemical
Protocol: The AKR1C3-inhibitory activity of the substances of the present invention was measured in the AKR1C3 assay described in the paragraphs below.
Essentially, the enzyme activity is measured by quantification of the generation of Coumberol from Coumberone (Halim et al. J. AM. CHEM. SOC. 2008, 130:14123-14128 and Yee et al. Proc. Natl. Acad. Sci. USA 2006, 103:13304-13309). In this test, the increase of the highly fluorescent Coumberol by NADPH—(nicotinamide adenine dinucleotide phosphate)-dependent reduction of the non-fluorescent Coumberone by AKR1C3 was determined.
The enzyme used was recombinant human AKR1C3 (Aldo-keto reductase family 1 member C3; GenBank Accession No. NM_003739). This was expressed in E. coli as GST (glutathione S transferase) fusion protein and purified by glutathione Sepharose affinity chromatography. The GST was removed by digestion with thrombin and subsequent size exclusion chromatography (Dufort, I., Rheault, P., Huang, X F., Soucy, P., and Luu-The, V., Endocrinology 140, 568-574 (1999)).
For the assay, 50 nl of a 100-fold concentrated solution of the test substance in DMSO were pipetted into a black low-volume 384-well microtiter plate (Greiner Bio-One, Frickenhausen, Germany), 2.5 μl of a solution of AKR1C3 in assay buffer [50 mM potassium phosphate buffer pH 7, 1 mM DTT, 0.0022% (w/v) Pluronic F-127, 0.01% BSA (w/v) and protease inhibitor cocktail (Complete, EDTA-free Protease Inhibitor Cocktail from Roche)] were added and the mixture was incubated for 15 min to allow pre-binding of the substances to the enzyme prior to the enzyme reaction. The enzyme reaction was then started by addition of 2.5 μl of a solution of NADPH (20 μM→final concentration in 5 μl of assay volume is 10 μM) and Coumberone (0.6 μM→final concentration in 5 μl of assay volume is 0.3 μM) in assay buffer, and the resulting mixture was incubated at 22° C. for the reaction time of typically 90 min. The concentration of the AKR1C3 and the reaction time was adapted to the respective activity of the enzyme preparation and adjusted such that the assay was carried out in the linear range. Typical AKR1C3 concentrations were in the region of 1 nM. The reaction was stopped by addition of 2.5 μl of a stop solution consisting of 3 μM EM-1404 as inhibitor (U.S. Pat. No. 6,541,463) in 50 mM HEPES pH7.5 (3 μM EM-1404→final concentration in 7.5 μl of assay volume is 1 μM). The fluorescence of the Coumberole was then measured at 520 nm (excitation at 380 nm) using a suitable measuring instrument (Pherastar from BMG Labtechnologies). The intensity of the fluorescence was used as a measure of the amount of Coumberole formed and thus of the enzyme activity of AKR1C3. The data were normalized (enzyme reaction without inhibitor=0% inhibition; all other assay components, but no enzyme=100% inhibition).
For N#Cc1cccc(S(=O)(=O)N2C3CCC2CN(C(=O)c2cnn[nH]2)C3)c1 [Example 17, 3-{[3-(1H-1,2,3-triazol-5-ylcarbonyl)-3,8-diazabicyclo[3.2.1]oct-8-yl]sulfonyl}benzonitrile], the IC50 was 2.9 nM. In the case of O=C(c1c[nH]nn1)N1CC2CCC(C1)N2S(=O)(=O)c1cc(F)ccc1F [Example 12, {8-[(2,5-difluorophenyl)sulfonyl]-3,8-diazabicyclo[3.2.1]oct-3-yl}(1H-1,2,3-triazol-4-yl)methanone], the IC50 is reported as 1.1 nM. O=C(c1c[nH]nn1)N1CC2CCC(C1)N2S(=O)(=O)c1ccccc1 [Example 1, [8-(phenylsulfonyl)-3,8-diazabicyclo[3.2.1]oct-3-yl](1H-1,2,3-triazol-4-yl)methanone] was tested, and the IC50 was 3.7 nM. In the case of O=C(c1cnn[nH]1)N1CC2CCC(C1)N2S(=O)(=O)c1cc(Cl)ccc1C(F)(F)F [Example 34, [8-{[5-chloro-2-(trifluoromethyl)phenyl]sulfonyl}-3,8-diazabicyclo[3.2.1]oct-3-yl](1H-1,2,3-triazol-5-yl)methanone], the IC50 is reported as 1.9 nM. In the case of O=C(c1cnn[nH]1)N1CC2CCC(C1)N2S(=O)(=O)c1cccc2ccccc12 [Example 39, [8-(naphthalen-1-ylsulfonyl)-3,8-diazabicyclo[3.2.1]oct-3-yl](1H-1,2,3-triazol-5-yl)methanone], the IC50 is reported as 1.3 nM. O=C(c1cnn[nH]1)N1CC2CCC(C1)N2S(=O)(=O)c1cccc(OC(F)(F)F)c1 [Example 33, 1H-1,2,3-triazol-5-yl[8-{[3-(trifluoromethoxy)phenyl]sulfonyl}-3,8-diazabicyclo[3.2.1]oct-3-yl]methanone] showed an IC50 of 1.8 nM. For COc1cccc(S(=O)(=O)N2C3CCC2CN(C(=O)c2cnn[nH]2)C3)c1 [Example 20, {8-[(3-methoxyphenyl)sulfonyl]-3,8-diazabicyclo[3.2.1]oct-3-yl}(1H-1,2,3-triazol-5-yl)methanone], the IC50 was 1 nM. Compound O=C(c1cnn[nH]1)N1CC2CCC(C1)N2S(=O)(=O)c1cccc(Cl)c1F [Example 27, {8-[(3-chloro-2-fluorophenyl)sulfonyl]-3,8-diazabicyclo[3.2.1]oct-3-yl}(1H-1,2,3-triazol-5-yl)methanone] has an IC50 of 0.9 nM. With O=C(c1cnn[nH]1)N1CC2CCC(C1)N2S(=O)(=O)c1ccc([N+](=O)[O-])cc1 [Example 43, {8-[(4-nitrophenyl)sulfonyl]-3,8-diazabicyclo[3.2.1]oct-3-yl}(1H-1,2,3-triazol-5-yl)methanone] the IC50 was 9.1 nM. O=C(c1cnn[nH]1)N1CC2CCC(C1)N2S(=O)(=O)c1cc(F)cc(F)c1 [Example 75, sodium 5-({8-[(3,5-difluorophenyl)sulfonyl]-3,8-diazabicyclo[3.2.1]oct-3-yl}carbonyl)-1,2,3-triazol-1-ide] showed an IC50 of 0.7 nM. With Cc1ccc(C)c(S(=O)(=O)N2C3CCC2CN(C(=O)c2cnn[nH]2)C3)c1 [Example 19, {8-[(2,5-dimethylphenyl)sulfonyl]-3,8-diazabicyclo[3.2.1]oct-3-yl}(1H-1,2,3-triazol-5-yl)methanone] the IC50 was 1.1 nM. COc1ccc(C#N)cc1S(=O)(=O)N1C2CCC1CN(C(=O)c1cnn[nH]1)C2 [Example 73, 4-methoxy-3-{[3-(1H-1,2,3-triazol-5-ylcarbonyl)-3,8-diazabicyclo[3.2.1]oct-8-yl]sulfonyl}benzonitrile] showed an IC50 of 28 nM. CCc1ccc(S(=O)(=O)N2C3CCC2CN(C(=O)c2cnn[nH]2)C3)cc1 [Example 49, {8-[(4-ethylphenyl)sulfonyl]-3,8-diazabicyclo[3.2.1]oct-3-yl}(1H-1,2,3-triazol-5-yl)methanone] was tested, and the IC50 was 1.2 nM. For O=C(c1cnn[nH]1)N1CC2CCC(C1)N2S(=O)(=O)c1cc(F)ccc1Cl [Example 70, {8-[(2-chloro-5-fluorophenyl)sulfonyl]-3,8-diazabicyclo[3.2.1]oct-3-yl}(1H-1,2,3-triazol-5-yl)methanone], the IC50 was 0.5 nM. With COc1ccc(S(=O)(=O)N2C3CCC2CN(C(=O)c2cnn[nH]2)C3)cc1 [Example 21, {8-[(4-methoxyphenyl)sulfonyl]-3,8-diazabicyclo[3.2.1]oct-3-yl}(1H-1,2,3-triazol-5-yl)methanone] the IC50 was 2 nM. Compound O=C(c1cnn[nH]1)N1CC2CCC(C1)N2S(=O)(=O)c1ccc2nsnc2c1 [Example 58, [8-(2,1,3-benzothiadiazol-5-ylsulfonyl)-3,8-diazabicyclo[3.2.1]oct-3-yl](1H-1,2,3-triazol-5-yl)methanone] has an IC50 of 1.2 nM. For O=C(c1cnn[nH]1)N1CC2CCC(C1)N2S(=O)(=O)c1c(F)cccc1F [Example 24, {8-[(2,6-difluorophenyl)sulfonyl]-3,8-diazabicyclo[3.2.1]oct-3-yl}(1H-1,2,3-triazol-5-yl)methanone], the IC50 was 1.8 nM. With O=C(c1cnn[nH]1)N1CC2CCC(C1)N2S(=O)(=O)c1cc(Cl)ccc1Cl [Example 30, {8-[(2,5-dichlorophenyl)sulfonyl]-3,8-diazabicyclo[3.2.1]oct-3-yl}(1H-1,2,3-triazol-5-yl)methanone] the IC50 was 0.6 nM. For O=C(c1cnn[nH]1)N1CC2CCC(C1)N2S(=O)(=O)c1cccc(Br)c1 [Example 31, {8-[(3-bromophenyl)sulfonyl]-3,8-diazabicyclo[3.2.1]oct-3-yl}(1H-1,2,3-triazol-5-yl)methanone], the IC50 was 0.5 nM. O=C(c1cnn[nH]1)N1CC2CCC(C1)N2S(=O)(=O)c1ccc(Cl)c(Cl)c1 [Example 48, {8-[(3,4-dichlorophenyl)sulfonyl]-3,8-diazabicyclo[3.2.1]oct-3-yl}(1H-1,2,3-triazol-5-yl)methanone] gave an IC50 of 1.1 nM. O=C(c1cnn[nH]1)N1CC2CCC(C1)N2S(=O)(=O)c1ccc2c(c1)OCO2 [Example 66, [8-(1,3-benzodioxol-5-ylsulfonyl)-3,8-diazabicyclo[3.2.1]oct-3-yl](1H-1,2,3-triazol-5-yl)methanone] showed an IC50 of 0.9 nM. O=C(c1cnn[nH]1)N1CC2CCC(C1)N2S(=O)(=O)c1ccc(OC(F)(F)F)cc1 [Example 41, 1H-1,2,3-triazol-5-yl[8-{[4-(trifluoromethoxy)phenyl]sulfonyl}-3,8-diazabicyclo[3.2.1]oct-3-yl]methanone] gave an IC50 of 6.5 nM. O=C(c1cnn[nH]1)N1CC2CCC(C1)N2S(=O)(=O)c1cc(F)cc(F)c1 [Example 3, {8-[(3,5-difluorophenyl)sulfonyl]-3,8-diazabicyclo[3.2.1]oct-3-yl}(1H-1,2,3-triazol-5-yl)methanone] was tested, and the IC50 was 1.4 nM. For O=C(c1cnn[nH]1)N1CC2CCC(C1)N2S(=O)(=O)c1ccc(F)c(Cl)c1 [Example 28, {8-[(3-chloro-4-fluorophenyl)sulfonyl]-3,8-diazabicyclo[3.2.1]oct-3-yl}(1H-1,2,3-triazol-5-yl)methanone], the IC50 was 1.2 nM. Compound O=C(c1cnn[nH]1)N1CC2CCC(C1)N2S(=O)(=O)c1ccc(F)cc1Cl [Example 50, {8-[(2-chloro-4-fluorophenyl)sulfonyl]-3,8-diazabicyclo[3.2.1]oct-3-yl}(1H-1,2,3-triazol-5-yl)methanone] has an IC50 of 0.9 nM. Cc1ccc(Br)cc1S(=O)(=O)N1C2CCC1CN(C(=O)c1cnn[nH]1)C2 [Example 65, {8-[(5-bromo-2-methylphenyl)sulfonyl]-3,8-diazabicyclo[3.2.1]oct-3-yl}(1H-1,2,3-triazol-5-yl)methanone] was tested, and the IC50 was 0.5 nM. In the case of O=C(c1cnn[nH]1)N1CC2CCC(C1)N2S(=O)(=O)c1cc(Cl)ccc1F [Example 61, {8-[(5-chloro-2-fluorophenyl)sulfonyl]-3,8-diazabicyclo[3.2.1]oct-3-yl}(1H-1,2,3-triazol-5-yl)methanone], the IC50 is reported as 1.5 nM. With O=C(c1cnn[nH]1)N1CC2CCC(C1)N2S(=O)(=O)c1ccc(F)c(F)c1 [Example 23, {8-[(3,4-difluorophenyl)sulfonyl]-3,8-diazabicyclo[3.2.1]oct-3-yl}(1H-1,2,3-triazol-5-yl)methanone] the IC50 was 2.2 nM. Work on N#Cc1ccc(Cl)c(S(=O)(=O)N2C3CCC2CN(C(=O)c2cnn[nH]2)C3)c1 [Example 74, 4-chloro-3-{[3-(1H-1,2,3-triazol-5-ylcarbonyl)-3,8-diazabicyclo[3.2.1]oct-8-yl]sulfonyl}benzonitrile] yielded an IC50 of 5.5 nM. O=C(c1c[nH]nn1)N1CC2CCC(C1)N2S(=O)(=O)c1cc(C(F)(F)F)cc(C(F)(F)F)c1 [Example 10] was tested, and the IC50 was 7.3 nM.
